# Laboratory results as given in PMC7926793, “Synthesis and Biological Evaluation of 1-(Diarylmethyl)-1H-1,2,4-triazoles and 1-(Diarylmethyl)-1H-imidazoles as a Novel Class of Anti-Mitotic Agent for Activity in Breast Cancer” (Pharmaceuticals, 2021).
# What was measured:
# MDA-MB-231 cells = assay: Annexin V/PI apoptotic assay; format: cell-based, human; settings: for total apoptotic cells: 48 h
# Procedure: (§1) Apoptotic cell death was detected by flow cytometry using Annexin V and propidium iodide (PI). MCF-7 and MDA-MB-231 cells were seeded in 6-well plates at a density of 1 × 10^5 cells/mL (3 mL) and treated with either vehicle (0.1% (v/v) EtOH), Phenstatin (7a), or 21l at different concentrations for the selected time. Then, cells were harvested and prepared for flow cytometric analysis. […] Then, cells were washed once in binding buffer and then re-suspended in PI-containing binding buffer (1:1000). […] Four populations are produced during the assay: Annexin V and PI negative (Q4, healthy cells), Annexin V positive and PI negative (Q3, early apoptosis), Annexin V and PI positive (Q2, late apoptosis), and Annexin V negative and PI positive (Q1, necrosis).
# MCF-7 cells [1] = assay: Annexin V/PI apoptotic assay; format: cell-based, human; settings: for Annexin V-stained positive cells (total apoptotic cells): 48 h
# Procedure: as §1
# [2] = system: MDA-MB-231 human breast cancer cells; set-up: method as in PMID 25721862; settings: read-out: reported IC50 of phenstatin in MDA-MB-231 cells; cited from earlier work
# [3] = system: tubulin (microtubule network) in MCF-7 cells; assay: immunofluorescence confocal microscopy of microtubule network; format: cell-based, human; settings: 1 μM, 16 h
# Procedure: Confocal microscopy was used to study the effects of drug treatment on MCF-7 cytoskeleton. For immunofluorescence, MCF-7 cells were seeded at 1 × 10^5 cells/mL on eight chamber glass slides (BD Biosciences). […] Following treatment, cells were gently washed in PBS, fixed for 20 min with 4% paraformaldehyde in PBS, and permeabilised in 0.5% Triton X-100. Following washes in PBS containing 0.1% Tween (PBST), cells were blocked in 5% bovine serum albumin diluted in PBST. […] Following washes in PBST, the cells were mounted in Ultra Cruz Mounting Media (Santa Cruz Biotechnology, Santa Cruz, CA) containing 4,6-diamino-2-phenolindol dihydrochloride (DAPI). Images were captured by Leica SP8 confocal microscopy with Leica application suite X software. All images in each experiment were collected on the same day using identical parameters. Experiments were performed on three independent occasions.
# [4] = system: purified bovine brain tubulin; assay: tubulin polymerisation assay; format: biochemical; settings: 10 μM
# Procedure: The assembly of purified bovine tubulin was monitored using a kit, BK006, purchased from Cytoskeleton Inc. (Denver, CO, USA). […] Light is scattered proportionally to the concentration of polymerised microtubules in the assay. Therefore, tubulin assembly was monitored turbidimetrically at 340 nm in a Spectramax 340 PC spectrophotometer (Molecular Devices, Sunnyvale, CA, USA). The absorbance was measured at 30 s intervals for 60 min.
# MCF-7 cells [5] = assay: cell cycle analysis, PI staining, flow cytometry; format: cell-based, human; settings: 1 μM
# Procedure: The cells were collected by trypsinisation and centrifuged at 800× g for 15 min. Cells were washed twice with ice-cold phosphate-buffered saline (PBS) and fixed in ice-cold 70% ethanol overnight at −20 °C.
# [6] = system: MCF-7 human breast cancer cells; assay: alamarBlue cell viability assay; format: cell-based; settings: Homo sapiens, MCF7, 72 h, read-out: cell viability (viable cells)
# Procedure: The human breast carcinoma cell line MCF-7 was purchased from the European Collection of Animal Cell Cultures (ECACC) and cultured in Eagles minimum essential medium with 10% foetal bovine serum, 2 mM L-glutamine, and 100 μg/mL penicillin/streptomycin. The medium was supplemented with 1% non-essential amino acids. The human breast carcinoma cell line MDA-MB-231 was purchased from the ECACC. MDA-MB-231 cells were maintained in Dulbecco’s modified Eagle’s medium (DMEM) supplemented with 10% (v/v) foetal bovine serum, 2 mM L-glutamine, and 100 μg/mL penicillin/streptomycin (complete medium). HL-60 cells were derived from a patient with acute myeloid leukaemia and were obtained from the ECACC (Salisbury, UK). Cells were cultured in RPMI-1640 Glutamax medium supplemented with 10% FCS media and 100 μg/mL penicillin/streptomycin. MCF-10A cells were obtained as a kind gift from Dr Susan McDonnell, School of Chemical and Bioprocess Engineering, University College Dublin and were cultured in Dulbecco’s Modified Eagle Medium: Nutrient Mixture F-12 (DMEM/F12; Gibco) supplemented with 5% horse serum (Invitrogen), 20 ng mL^−1 epidermal growth factor (Merck Millipore), 0.5 μg mL^−1 hydrocortisone (Sigma,-Aldrich, Arklow, Co. Wicklow, Ireland), 100 ng mL^−1 cholera toxin (Sigma, Aldrich, Arklow, Co. Wicklow, Ireland), 10 μg mL^−1 insulin (Sigma, Aldrich, Arklow, Co. Wicklow, Ireland), and penicillin/streptomycin 5000 U mL^−1 (1%)(Gibco, Biosciences, 3 Charlemont Terrace, Crofton Road, Dun Laoghaire, Co Dublin, A96 K7H7, Ireland). Cells were maintained at 37 °C in 5% CO2 in a humidified incubator. All cells were sub-cultured 3 times/week by trypsinisation using TrypLE Express (1×).
# Cells were seeded at a density of 2.5 × 10^4 cells/well (MCF-7, MDA-MB-231, MCF-10A cells) and 1 × 10^4 cells/well (HL-60) in 96-well plates (200 μL per well). After 24 h, cells were then treated with either medium alone, vehicle control (1% ethanol (v/v)) or with serial dilutions of CA-4 (4a), phenstatin (7a) or selected compounds (0.001–100 μM) in triplicate. Cell proliferation for MCF-7, MDA-MB-231, and MCF-10A cells was analysed using the alamarBlue assay (Invitrogen Corp.) according to the manufacturer’s instructions. After 67–69 h, alamarBlue (10% (v/v)) was added to each well, and plates were incubated for 3–5 h at 37 °C in the dark. Fluorescence was read using a 96-well fluorimeter with excitation at 530 nm and emission at 590 nm. Results were expressed as percentage viability relative to vehicle control (100%).
# HL-60 leukaemia cells = system: HL-60 leukaemia cells; set-up: method as in PMID 19647439; settings: read-out: IC50 of phenstatin in HL-60; cited from earlier work
# [7] = system: MCF-7 human breast cancer cells; settings: MCF-7 section; read-out: IC50 of phenstatin positive control; cited from earlier work
# [8] = Homo sapiens, MDA-MB-231, 48 h, read-out: Viable
# [9] = Homo sapiens, MCF7, 48 h, read-out: Viable
smiles,measurement,setting,value
"COc1ccc(C(=O)c2cc(OC)c(OC)c(OC)c2)cc1O [phenstatin, (3-Hydroxy-4-Methoxyphenyl)(3,4,5-Trimethoxyphenyl)Methanone, reference compound]",viability at 0.1 µM,MDA-MB-231 cells; [8],80.4%
same,viability at 0.5 µM,MDA-MB-231 cells; [8],80.6%
same,total apoptotic cells,"MDA-MB-231 cells; MDA-MB-231, 0.1 μM",16.6%
same,total apoptotic cells,"MDA-MB-231 cells; MDA-MB-231, 0.5 μM",17.9%
same,viability at 0.1 µM,MCF-7 cells [1]; [9],58.4%
same,viability at 0.5 µM,MCF-7 cells [1]; [9],50.7%
same,Annexin V-stained positive cells (total apoptotic cells),"MCF-7 cells [1]; MCF-7, 0.1 μM",36.1%
same,Annexin V-stained positive cells (total apoptotic cells),"MCF-7 cells [1]; MCF-7, 0.5 μM",46%
same,IC50,[2],1500 nM
same,effect on microtubule network of MCF-7 cells,[3],extensive depolymerisation of tubulin
same,effect on tubulin polymerisation and assembly,[4],significant inhibition of tubulin polymerisation
same,cells in the G2/M phase,MCF-7 cells [5]; 24 h,65%
same,cells in the G2/M phase,MCF-7 cells [5]; 48 h,49%
same,cells in the G2/M phase,MCF-7 cells [5]; 72 h,51%
same,cells undergoing apoptosis (sub-G1),MCF-7 cells [5]; 72 h,18%
same,viability at 1 µM,[6],30%
same,IC50,HL-60 leukaemia cells,31 nM
same,IC50,[7],1.61 ± 2.7 nM
